Reference: patent publication US20240279214A1, “ALPHA4 BETA7 INEGRIN ANTAGONISTS AND USES THEREOF” (XinThera, Inc., priority 2022, published 2024)
Where two headings read alike, the source gives them in different places.

Conditions: 13-membered ring

CCOC(=O)C[C@@H]1NC(=O)C(n2ccc(C(F)(F)F)c(C3CC3)c2=O)c2cc(ccc2F)Oc2cccc(C)c2-c2cc(C)c(F)c1c2 (stereo in doubt)
ring closure, isolated yield (from CCOC(=O)C[C@H](NC(=O)C(c1cc(Br)ccc1F)n1ccc(C(F)(F)F)c(C2CC2)c1=O)c1cc(-c2c(C)cccc2O)cc(C)c1F, ether bond, CuI/K2CO3/(1R,2R)-N1,N2-dimethylcyclohexane-1,2-diamine, dioxane, 45.0 mM, 100.0 °C): 46.7%

CCOC(=O)C[C@@H]1NC(=O)C(n2ccc(C(F)(F)F)cc2=O)c2cc(ccc2F)Oc2cc(OC)cc(C)c2-c2cc(C)c(F)c1c2 (some centres unmarked)
ring closure, isolated yield (from CCOC(=O)C[C@H](NC(=O)C(c1cc(Br)ccc1F)n1ccc(C(F)(F)F)cc1=O)c1cc(-c2c(C)cc(OC)cc2O)cc(C)c1F, ether bond, CuI/K2CO3/(1R,2R)-N1,N2-dimethylcyclohexane-1,2-diamine, 1,4-dioxane, 70.0 mM, 100.0 °C, 2.0 h): 67.3%

CCOC(=O)C[C@@H]1NC(=O)C(n2cc(CCN3CC(F)C3)c(C(F)(F)F)cc2=O)c2cccc(c2)Oc2cccc(C)c2-c2cc(C3CC3)c(F)c1c2 (some centres unmarked)
ring closure, isolated yield (from CCOC(=O)C[C@H](NC(=O)C(c1cccc(Br)c1)n1cc(CCN2CC(F)C2)c(C(F)(F)F)cc1=O)c1cc(-c2c(C)cccc2O)cc(C2CC2)c1F, ether bond, CuI/(1R,2R)-N1,N2-dimethylcyclohexane-1,2-diamine/K2CO3, dioxane, 26.1 mM, 100.0 °C, 16.0 h): 82.3%

CCOC(=O)C[C@@H]1NC(=O)C(n2cc(CCN3CC(F)(F)C3)c(C(F)(F)F)cc2=O)c2cc(ccc2F)Oc2cccc(C)c2-c2cc(C)c(F)c1c2 (some centres unmarked)
ring closure, isolated yield (from CCOC(=O)C[C@H](NC(=O)C(c1cc(Br)ccc1F)n1cc(CCN2CC(F)(F)C2)c(C(F)(F)F)cc1=O)c1cc(-c2c(C)cccc2O)cc(C)c1F, ether bond, CuI/(1R,2R)-N1,N2-dimethylcyclohexane-1,2-diamine/K2CO3, 1,4-dioxane, 26.0 mM, 100.0 °C, 16.0 h): 50.3%

CCOC(=O)C[C@@H]1NC(=O)C(n2cc(CCN3CC(F)C3)c(C(F)(F)F)cc2=O)c2cc(ccc2F)Oc2cc(Cl)cc(C)c2-c2cc(C)c(F)c1c2 (stereo in doubt)
ring closure, isolated yield (from CCOC(=O)C[C@H](NC(=O)C(c1cc(Br)ccc1F)n1cc(CCN2CC(F)C2)c(C(F)(F)F)cc1=O)c1cc(-c2c(C)cc(Cl)cc2O)cc(C)c1F, ether bond, CuI/(1R,2R)-N1,N2-dimethylcyclohexane-1,2-diamine/K2CO3, dioxane, 47.0 mM, 100.0 °C, 16.0 h): 52.5%

CCOC(=O)C[C@@H]1NC(=O)C(=O)c2cccc(c2)Cc2cccc(C)c2-c2cc(C)c(F)c1c2
ring closure, isolated yield (from CCOC(=O)C[C@H](N)c1cc(-c2c(C)cccc2Cc2cccc(C(=O)C(=O)O)c2)cc(C)c1F, amide bond, TCFH/NMI, MeCN, 139.3 mM, 25.0 °C, 3.0 h): 32.5%

CCOC(=O)C[C@@H]1NC(=O)C(n2cc(CCN3CC(F)C3)c(C(F)(F)F)cc2=O)c2cc(ccc2F)Oc2cc(C)cc(C)c2-c2cc(C)c(F)c1c2 (some centres unmarked)
ring closure, isolated yield (from CCOC(=O)C[C@H](NC(=O)C(c1cc(Br)ccc1F)n1cc(CCN2CC(F)C2)c(C(F)(F)F)cc1=O)c1cc(-c2c(C)cc(C)cc2O)cc(C)c1F, ether bond, CuI/K2CO3/(1R,2R)-N1,N2-dimethylcyclohexane-1,2-diamine, dioxane, 66.0 mM, 100.0 °C, 16.0 h): 49.3%

ethyl 2-[(14S,17S)-14-{5-[3-(azetidin-1-yl) propyl]-2-oxo-4-(trifluoromethyl) pyridin-1-yl}-12,19-difluoro-3,20-dimethyl-15-oxo-8-oxa-16-azatetracyclo [16.3.1.1^{9,13}.0^{2,7}] tricosa-1(22),2(7),3,5,9,11,13(23),18,20-nonaen-17-yl] acetate
ring closure, isolated yield (ether bond, CuI/K2CO3/(1R,2R)-N1,N2-dimethylcyclohexane-1,2-diamine, 1,4-dioxane, 46.7 mM, 100.0 °C): 62.8%

CCOC(=O)C[C@@H]1NC(=O)C(n2cc(CCN3CC(F)C3)c(C(F)(F)F)cc2=O)c2cc(ccc2C)Oc2cccc(C)c2-c2cc(C)c(F)c1c2 (some centres unmarked)
ring closure, isolated yield (from CCOC(=O)C[C@H](NC(=O)C(c1cc(Br)ccc1C)n1cc(CCN2CC(F)C2)c(C(F)(F)F)cc1=O)c1cc(-c2c(C)cccc2O)cc(C)c1F, ether bond, CuI/K2CO3/(1R,2R)-N1,N2-dimethylcyclohexane-1,2-diamine, 1,4-dioxane, 100.0 °C): 88.9%

CCOC(=O)C[C@@H]1NC(=O)C(n2cc(CCN3CC(F)C3)cc(C)c2=O)c2cc(ccc2F)Oc2cccc(C)c2-c2cc(C)c(F)c1c2 (some centres unmarked)
ring closure, isolated yield (from CCOC(=O)C[C@H](NC(=O)C(c1cc(Br)ccc1F)n1cc(CCN2CC(F)C2)cc(C)c1=O)c1cc(-c2c(C)cccc2O)cc(C)c1F, ether bond, CuI/K2CO3/(1R,2R)-N1,N2-dimethylcyclohexane-1,2-diamine, 1,4-dioxane, 20.0 mM, 100.0 °C, 16.0 h): 70.9%

CCOC(=O)C[C@@H]1NC(=O)C(n2cc(CCN3CCC(F)(F)CC3)c(C(F)(F)F)cc2=O)c2cc(ccc2F)Oc2cccc(C)c2-c2cc(C)c(F)c1c2 (some centres unmarked)
ring closure, isolated yield (from CCOC(=O)C[C@H](NC(=O)C(c1cc(Br)ccc1F)n1cc(CCN2CCC(F)(F)CC2)c(C(F)(F)F)cc1=O)c1cc(-c2c(C)cccc2O)cc(C)c1F, ether bond, CuI/K2CO3/(1R,2R)-N1,N2-dimethylcyclohexane-1,2-diamine, 1,4-dioxane, 36.3 mM, 100.0 °C, 16.0 h): 66.2%

CCOC(=O)C[C@@H]1NC(=O)C(n2cc(CCN3CC(F)C3)c(C(F)(F)F)cc2=O)c2cc(cc(C(F)(F)F)c2)Oc2cccc(C)c2-c2cc1c(F)c(C(F)(F)F)c2 (some centres unmarked)
ring closure, isolated yield (from CCOC(=O)C[C@H](NC(=O)C(c1cc(Br)cc(C(F)(F)F)c1)n1cc(CCN2CC(F)C2)c(C(F)(F)F)cc1=O)c1cc(-c2c(C)cccc2O)cc(C(F)(F)F)c1F, ether bond, CuI/(1R,2R)-N1,N2-dimethylcyclohexane-1,2-diamine/K2CO3, dioxane, 15.0 mM, 100.0 °C, 2.0 h): 64.3%

CCOC(=O)C[C@@H]1NC(=O)C(n2cc(CCN3CC(F)C3)c(C(F)(F)F)cc2=O)c2cccc(c2)Oc2cccc(C(F)(F)F)c2-c2cc1c(F)c(C(F)(F)F)c2 (some centres unmarked)
ring closure, isolated yield (from CCOC(=O)C[C@H](NC(=O)C(c1cccc(Br)c1)n1cc(CCN2CC(F)C2)c(C(F)(F)F)cc1=O)c1cc(-c2c(O)cccc2C(F)(F)F)cc(C(F)(F)F)c1F, ether bond, CuI/N1,N2-dimethylcyclohexane-1,2-diamine/K2CO3, dioxane, 14.7 mM, 100.0 °C, 16.0 h): 46.7%

CCOC(=O)C[C@@H]1NC(=O)C(n2cc(CCN3CC(F)C3)c(C(F)(F)F)cc2=O)c2cc(ccc2F)Oc2ccc(F)cc2-c2cc(C)c(F)c1c2 (some centres unmarked)
ring closure, isolated yield (from CCOC(=O)C[C@H](NC(=O)C(c1cc(Br)ccc1F)n1cc(CCN2CC(F)C2)c(C(F)(F)F)cc1=O)c1cc(-c2cc(F)ccc2O)cc(C)c1F, ether bond, CuI/(1R,2R)-N1,N2-dimethylcyclohexane-1,2-diamine/K2CO3, dioxane, 95.0 mM, 100.0 °C, 3.0 h): 54.4%

CCOC(=O)C[C@@H]1NC(=O)C(n2cc(CCN3CC(F)C3)c(C(F)(F)F)cc2=O)c2cc(ccc2F)Oc2ccc(F)c(C)c2-c2cc(C)c(F)c1c2 (stereo in doubt)
ring closure, isolated yield (from CCOC(=O)C[C@H](NC(=O)C(c1cc(Br)ccc1F)n1cc(CCN2CC(F)C2)c(C(F)(F)F)cc1=O)c1cc(-c2c(O)ccc(F)c2C)cc(C)c1F, ether bond, CuI/K2CO3/(1R,2R)-N1,N2-dimethylcyclohexane-1,2-diamine, dioxane, 34.0 mM, 100.0 °C, 16.0 h): 55.2%

CCOC(=O)C[C@@H]1NC(=O)C(n2cc(CCN3CC(F)C3)c(C(F)(F)F)cc2=O)c2cc(ccc2F)Oc2cccc(C)c2-c2cc(C3CC3)c(F)c1c2 (stereo in doubt)
ring closure, isolated yield (from CCOC(=O)C[C@H](NC(=O)C(c1cc(Br)ccc1F)n1cc(CCN2CC(F)C2)c(C(F)(F)F)cc1=O)c1cc(-c2c(C)cccc2O)cc(C2CC2)c1F, ether bond, CuI/K2CO3/(1R,2R)-N1,N2-dimethylcyclohexane-1,2-diamine, dioxane, 25.0 mM, 100.0 °C, 16.0 h): 67.3%

CCOC(=O)C[C@H](NC(=O)C(c1cc(Cl)cc(Br)c1)n1cc(CCN2CC(F)C2)c(C(F)(F)F)cc1=O)c1cc(-c2c(O)ccc(F)c2C)cc(C)c1F (some centres unmarked)
ring closure, isolated yield (the molecule shown is the open-chain precursor, ether bond, CuI/(1R,2R)-N1,N2-dimethylcyclohexane-1,2-diamine/K2CO3, dioxane, 22.0 mM, 100.0 °C): 98.3%

CCOC(=O)C[C@@H]1NC(=O)C(n2cc(CCN3CC(F)C3)c(C(F)(F)F)cc2=O)c2cc(ccc2F)Oc2cccc(C)c2-c2cc(Cl)c(F)c1c2 (stereo in doubt)
ring closure, isolated yield (from CCOC(=O)C[C@H](NC(=O)C(c1cc(Br)ccc1F)n1cc(CCN2CC(F)C2)c(C(F)(F)F)cc1=O)c1cc(-c2c(C)cccc2O)cc(Cl)c1F, ether bond, CuI/K2CO3/(1R,2R)-N1,N2-dimethylcyclohexane-1,2-diamine, 1,4-dioxane, 46.7 mM, 100.0 °C, 16.0 h): 64.9%

CCOC(=O)C[C@@H]1NC(=O)C(n2cc(CCN3CC(F)C3)cc(CC)c2=O)c2cc(ccc2F)Oc2cccc(C)c2-c2cc(C)c(F)c1c2 (stereo in doubt)
ring closure, isolated yield (from CCOC(=O)C[C@H](NC(=O)C(c1cc(Br)ccc1F)n1cc(CCN2CC(F)C2)cc(CC)c1=O)c1cc(-c2c(C)cccc2O)cc(C)c1F, ether bond, CuI/(1R,2R)-N,N'-dimethylcyclohexane-1,2-diamine/K2CO3, dioxane, 40.0 mM, 100.0 °C, 16.0 h): 46.5%

CCOC(=O)C[C@H](NC(=O)C(c1cc(Br)ccc1F)n1ccc(C(F)(F)F)c(Cl)c1=O)c1cc(-c2c(C)cccc2O)cc(C)c1F (some centres unmarked)
ring closure, isolated yield (the molecule shown is the open-chain precursor, ether bond, CuI/K2CO3/(1R,2R)-N1,N2-dimethylcyclohexane-1,2-diamine, 1,4-dioxane, 43.3 mM, 100.0 °C): 56.1%

CCOC(=O)C[C@@H]1NC(=O)C(n2ccc(C(F)(F)F)c(CC)c2=O)c2cc(ccc2F)Oc2cccc(C)c2-c2cc(C)c(F)c1c2 (some centres unmarked)
ring closure, isolated yield (from CCOC(=O)C[C@H](NC(=O)C(c1cc(Br)ccc1F)n1ccc(C(F)(F)F)c(CC)c1=O)c1cc(-c2c(C)cccc2O)cc(C)c1F, ether bond, CuI/(1R,2R)-N,N'-dimethylcyclohexane-1,2-diamine/K2CO3, 1,4-dioxane, 20.0 mM, 100.0 °C, 16.0 h): 56.1%

CCOC(=O)C[C@@H]1NC(=O)C(n2cc(CCN3CC(F)C3)c(C(F)(F)F)cc2=O)c2cc(ccc2F)Oc2cccc(C)c2-c2cc1c(C)s2 (some centres unmarked)
ring closure, isolated yield (from CCOC(=O)C[C@H](NC(=O)C(c1cc(Br)ccc1F)n1cc(CCN2CC(F)C2)c(C(F)(F)F)cc1=O)c1cc(-c2c(C)cccc2O)sc1C, ether bond, CuI/K2CO3/(1R,2R)-N1,N2-dimethylcyclohexane-1,2-diamine, dioxane, 26.0 mM, 100.0 °C): 55.7%

CCOC(=O)C[C@@H]1NC(=O)C(n2cc(CCN3CC(F)C3)c(C(F)(F)F)cc2=O)c2cc(cc(C(F)(F)F)c2)Oc2cccc(C)c2-c2cc(C)c(F)c1c2 (stereo in doubt)
ring closure, isolated yield (from CCOC(=O)C[C@H](NC(=O)C(c1cc(Br)cc(C(F)(F)F)c1)n1cc(CCN2CC(F)C2)c(C(F)(F)F)cc1=O)c1cc(-c2c(C)cccc2O)cc(C)c1F, ether bond, CuI/K2CO3/(1R,2R)-N1,N2-dimethylcyclohexane-1,2-diamine, dioxane, 90.0 mM, 100.0 °C, 2.0 h): 69%
